The target in one assay is T1, CDK2/CycE (Homo sapiens, UniProt P24941).
T1 construct: GST; purchased ProQinase GmbH (Freiburg, Germany); host or cells: insect cells (Sf9)
As to the kind of experiment: CDK2/CycE high ATP kinase assay (Method 2b, TR-FRET). Type of assay: biochemical. The following applies: 2 mM ATP. How it is done:
2b. CDK2/CycE High ATP Kinase Assay:
CDK2/CycE-inhibitory activity of compounds of the present invention at 2 mM adenosine-tri-phosphate (ATP) was quantified employing the CDK2/CycE TR-FRET (TR-FRET=Time Resolved Fluorescence Energy Transfer) assay as described in the following paragraphs.
Recombinant fusion proteins of GST and human CDK2 and of GST and human CycE, expressed in insect cells (Sf9) and purified by Glutathion-Sepharose affinity chromatography, were purchase from ProQinase GmbH (Freiburg, Germany). As substrate for the kinase reaction biotinylated peptide biotin-Ttds-YISPLKSPYKISEG (C-terminus in amid form) was used which can be purchased e.g. form the company JERINI peptide technologies (Berlin, Germany).
For the assay 50 nl of a 100 fold concentrated solution of the test compound in DMSO was pipetted into a black low volume 384 well microtiter plate (Greiner Bio-One, Frickenhausen, Germany), 2 μl of a solution of CDK2/CycE in aqueous assay buffer [50 mM Tris/HCl pH 8.0, 10 mM MgCl2, 1.0 mM dithiothreitol, 0.1 mM sodium ortho-vanadate, 0.01% (v/v) Nonidet-P40 (Sigma)] were added and the mixture was incubated for 15 min at 22° C. to allow pre-binding of the test compounds to the enzyme before the start of the kinase reaction. Then the kinase reaction was started by the addition of 3 μl of a solution ATP (3.33 mM=> final conc. in the 5 μl assay volume is 2 mM) and substrate (1.25 μM=> final conc. in the 5 μl assay volume is 0.75 μM) in assay buffer and the resulting mixture was incubated for a reaction time of 25 min at 22° C. […]
The resulting mixture was incubated 1 h at 22° C. to allow the formation of complex between the phosphorylated biotinylated peptide and the detection reagents. Subsequently the amount of phosphorylated substrate was evaluated by measurement of the resonance energy transfer from the Euchelate to the streptavidine-XL. Therefore, the fluorescence emissions at 620 nm and 665 nm after excitation at 350 nm wer measured in a TR-FRET reader, e.g. a Rubystar (BMG Labtechnologies, Offenburg, Germany) or a Viewlux (Perkin-Elmer). […]

In a further assay the target is T2, CDK9/CycT1 (Homo sapiens, UniProt P50750).
T2 construct: Recombinant full-length His-tagged human CDK9 and CycT1; His; purchased Invitrogen PV4131; host or cells: insect cells
As to the kind of experiment: CDK9/CycT1 high ATP kinase assay (Method 1b, TR-FRET). As to conditions: 2 mM ATP; for IC50: Method 1b; for Selectivity high ATP CDK9 over high ATP CDK2: IC50 (high ATP CDK2)/IC50 (high ATP CDK9): Methods 1b and 2b. Type of assay: biochemical. How it is done: 1b. CDK9/CycT1 High ATP Kinase Assay
CDK9/CycT1-inhibitory activity of compounds of the present invention at a high ATP concentration after preincubation of enzyme and test compounds was quantified employing the CDK9/CycT1 TR-FRET assay as described in the following paragraphs.
Recombinant full-length His-tagged human CDK9 and CycT1, expressed in insect cells and purified by Ni-NTA affinity chromatography, were purchase from Invitrogen (Cat. No PV4131). As substrate for the kinase reaction biotinylated peptide biotin-Ttds-YISPLKSPYKISEG (C-terminus in amid form) was used which can be purchased e.g. form the company JERINI peptide technologies (Berlin, Germany). For the assay 50 nl of a 100 fold concentrated solution of the test compound in DMSO was pipetted into a black low volume 384 well microtiter plate (Greiner Bio-One, Frickenhausen, Germany), 2 μl of a solution of CDK9/CycT1 in aqueous assay buffer [50 mM Tris/HCl pH 8.0, 10 mM MgCl2, 1.0 mM dithiothreitol, 0.1 mM sodium ortho-vanadate, 0.01% (v/v) Nonidet-P40 (Sigma)] were added and the mixture was incubated for 15 min at 22° C. to allow pre-binding of the test compounds to the enzyme before the start of the kinase reaction. Then the kinase reaction was started by the addition of 3 μl of a solution of adenosine-tri-phosphate (ATP, 3.3 mM=> final conc. in the 5 μl assay volume is 2 mM) and substrate (1.67 μM=> final conc. in the 5 μl assay volume is 1 μM) in assay buffer and the resulting mixture was incubated for a reaction time of 25 min at 22° C. The concentration of CDK9/CycT1 was adjusted depending of the activity of the enzyme lot and was chosen appropriate to have the assay in the linear range, typical concentrations were in the range of 0.5 μg/mL. The reaction was stopped by the addition of 5 μl of a solution of TR-FRET detection reagents (0.2 μM streptavidine-XL665 [Cisbio Bioassays, Codolet, France] and 1 nM anti-RB(pSer807/pSer811)-antibody from BD Pharmingen [#558389] and 1.2 nM LANCE EU-W1024 labeled anti-mouse IgG antibody [Perkin-Elmer, product no. AD0077]) in an aqueous EDTA-solution (100 mM EDTA, 0.2% (w/v) bovine serum albumin in 100 mM HEPES/NaOH pH 7.0).
The resulting mixture was incubated 1 h at 22° C. to allow the formation of complex between the phosphorylated biotinylated peptide and the detection reagents. Subsequently the amount of phosphorylated substrate was evaluated by measurement of the resonance energy transfer from the Euchelate to the streptavidine-XL. Therefore, the fluorescence emissions at 620 nm and 665 nm after excitation at 350 nm was measured in a HTRF reader, e.g. a Rubystar (BMG Labtechnologies, Offenburg, Germany) or a Viewlux (Perkin-Elmer). The ratio of the emissions at 665 nm and at […] was taken as the measure for the amount of phosphorylated substrate. The data were normalised (enzyme reaction without inhibitor=0% inhibition, all other assay components but no enzyme=100% inhibition).
A general note: Time-resolved FRET reads energy transfer from a long-lived donor to a nearby acceptor.

Molecules are shown by their SMILES.

T2 sequence (P50750 whole entry): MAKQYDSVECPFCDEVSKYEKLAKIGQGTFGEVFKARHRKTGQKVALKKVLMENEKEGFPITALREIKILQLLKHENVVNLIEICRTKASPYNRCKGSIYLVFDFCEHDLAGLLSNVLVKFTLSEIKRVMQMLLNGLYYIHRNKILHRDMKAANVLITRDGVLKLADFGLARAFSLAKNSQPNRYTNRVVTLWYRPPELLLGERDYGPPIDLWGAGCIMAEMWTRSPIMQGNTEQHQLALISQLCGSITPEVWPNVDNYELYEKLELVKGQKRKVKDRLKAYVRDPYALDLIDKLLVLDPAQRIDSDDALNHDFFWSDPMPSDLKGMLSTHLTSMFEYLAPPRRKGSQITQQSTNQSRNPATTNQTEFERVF
T2 sequence (O60563 whole entry partner): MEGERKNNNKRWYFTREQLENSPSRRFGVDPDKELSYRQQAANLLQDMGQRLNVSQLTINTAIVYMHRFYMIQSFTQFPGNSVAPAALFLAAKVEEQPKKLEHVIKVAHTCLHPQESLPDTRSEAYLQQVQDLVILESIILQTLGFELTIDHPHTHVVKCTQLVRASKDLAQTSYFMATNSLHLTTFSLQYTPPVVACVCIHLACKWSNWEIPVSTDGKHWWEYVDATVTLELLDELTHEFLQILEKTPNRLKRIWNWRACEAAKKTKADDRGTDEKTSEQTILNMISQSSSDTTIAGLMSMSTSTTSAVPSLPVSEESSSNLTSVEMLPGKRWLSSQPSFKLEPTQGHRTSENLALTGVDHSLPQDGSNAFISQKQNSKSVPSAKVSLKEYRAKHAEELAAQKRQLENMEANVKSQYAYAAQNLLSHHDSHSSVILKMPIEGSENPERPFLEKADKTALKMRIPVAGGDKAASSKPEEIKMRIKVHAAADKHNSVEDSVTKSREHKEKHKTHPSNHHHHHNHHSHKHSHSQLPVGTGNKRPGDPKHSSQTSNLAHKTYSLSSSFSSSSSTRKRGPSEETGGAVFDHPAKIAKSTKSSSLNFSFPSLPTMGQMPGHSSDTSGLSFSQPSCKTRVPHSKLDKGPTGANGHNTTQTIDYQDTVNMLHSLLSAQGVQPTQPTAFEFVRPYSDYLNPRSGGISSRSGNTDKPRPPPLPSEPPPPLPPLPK

By IC50 is commonly meant the concentration that inhibits the measured activity by half. A high value points to a need for much substance. `CS(=O)(=O)Cc1cccc(Nc2ncc(F)c(-c3ccc(F)c4ccoc34)n2)c1` [Example 1, 5-Fluoro-4-(4-fluoro-1-benzofuran-7-yl)-N-{3-[(methylsulfonyl)methyl]-phenyl}pyrimidin-2-amine]: the IC50 at CDK2/CycE was determined as 1320 nM. In addition, at CDK9/CycT1, the IC50 came out at 9 nM and the “Selectivity high ATP CDK9 over high ATP CDK2: IC50 (high ATP CDK2)/IC50 (high ATP CDK9)” value (“Selectivity high ATP CDK9” for short) is reported as 147.

With `CCS(=O)(=O)Cc1cccc(Nc2ncc(F)c(-c3ccc(F)c4ccoc34)n2)c1` [Example 2, N-{3-[(Ethylsulfonyl)methyl]phenyl}-5-fluoro-4-(4-fluoro-1-benzofuran-7-yl)pyrimidin-2-amine], at CDK2/CycE, the 50% inhibitory concentration (IC50) turned out to be 917 nM. On CDK9/CycT1, the 50% inhibitory concentration (IC50) came to 9 nM and the “Selectivity high ATP CDK9” value is reported as 102.

As for `CS(=O)(=O)Cc1cc(F)cc(Nc2ncc(F)c(-c3ccc(F)c4ccoc34)n2)c1` [Example 3], it took 2 nM to reach half-maximal inhibition against CDK9/CycT1 (IC50).

For the compound `Cc1cc(CS(C)(=O)=O)cc(Nc2ncc(F)c(-c3ccc(F)c4ccoc34)n2)c1` [Example 4, 5-Fluoro-4-(4-fluoro-1-benzofuran-7-yl)-N-{3-methyl-5-[(methylsulfonyl)methyl]-phenyl}pyrimidin-2-amine], the IC50 against CDK2/CycE was 8560 nM. For the same compound, on CDK9/CycT1, 1 nM corresponded to half-maximal inhibition (IC50) and the “Selectivity high ATP CDK9” value was 8560.

For the origin of these results see patent US9902716B2, “Fluorinated benzofuranyl-pyrimidine derivatives containing a sulfone group” (Bayer Pharma Aktiengesellschaft, priority 2014, dated 2018).
